From ChEMBL document CHEMBL5338744, “Development and Characterization of Benzoselenazole Derivatives as Potent and Selective c-MYC Transcription Inhibitors” (J Med Chem, 2023) come the findings set out here.

A value given as a limit tells only on which side of the number the result lay.

In the first data set the test system is HepG2. Kind of data set: Cytotoxicity against human HepG2 cells assessed as reduction in cell viability incubated for 48 hrs by MTT assay. The format is functional, cell-based. Conditions: HepG2, 48 h. In general terms: Tetrazolium dyes change colour on reduction, which living cells bring about.
The term IC50 denotes the midpoint of a concentration-inhibition curve. For the molecule `CN(C)CCCn1c2ccccc2c2cc(/C=C/c3oc4ccccc4[n+]3C)ccc21`, the IC50 amounted to 5.9 µM.

For `CN(C)CCCn1c2ccccc2c2cc(/C=C/c3[se]c4ccccc4[n+]3C)ccc21`, the IC50 was 26.2 µM.

Turning to `CCn1c2ccccc2c2cc(/C=C/c3nc4c(ccc5ccccc54)o3)ccc21`, the IC50 is greater than 100 µM.

Consider `CCn1c2ccccc2c2cc(/C=C/c3sc4ccccc4[n+]3C)ccc21`, for which the half-inhibitory concentration (IC50) was 5.7 µM.

With `C[n+]1c(/C=C/c2ccc3c(c2)c2ccccc2n3Cc2ccccc2)oc2ccccc21`, the IC50 stood at 96.2 µM.

For `CCn1c2ccccc2c2cc(/C=C/c3sc4ccc5ccccc5c4[n+]3C)ccc21`, the IC50 turned out to be 8.3 µM.

Take `CN(C)CCCn1c2ccccc2c2cc(/C=C/c3sc4ccccc4[n+]3C)ccc21`: the IC50 is 11.3 µM.

Regarding `CCn1c2ccccc2c2cc(/C=C/c3nc4c(ccc5ccccc54)s3)ccc21`, the IC50 turned out to be 58.7 µM.

As to `C(=C\c1nc2ccccc2o1)/c1ccc2c(c1)c1ccccc1n2Cc1ccccc1`, the IC50 turned out to be 5.7 µM.

In the case of `CCn1c2ccccc2c2cc(/C=C/c3oc4ccc5ccccc5c4[n+]3C)ccc21`, the IC50 came to 93.3 µM.

With `CN(C)CCCn1c2ccccc2c2cc(/C=C/c3nc4ccccc4s3)ccc21`, the IC50 is 21.3 µM.

In the case of `CCn1c2ccccc2c2cc(/C=C/c3nc4ccccc4s3)ccc21`, the IC50 came out at 52.1 µM.

The next data set relates to HCT-116. Kind of data set: Cytotoxicity against human HCT-116 cells assessed as reduction in cell viability incubated for 48 hrs by MTT assay. Format: functional, cell-based. Conditions: HCT-116, 48 h.
As for `CN(C)CCCn1c2ccccc2c2cc(/C=C/c3oc4ccccc4[n+]3C)ccc21`, the IC50 was 4.7 µM.

As to `CN(C)CCCn1c2ccccc2c2cc(/C=C/c3[se]c4ccccc4[n+]3C)ccc21`, the IC50 is 15 µM.

For the molecule `CCn1c2ccccc2c2cc(/C=C/c3nc4c(ccc5ccccc54)o3)ccc21`, the IC50 is greater than 100 µM.

As to `CCn1c2ccccc2c2cc(/C=C/c3sc4ccccc4[n+]3C)ccc21`, the IC50 was found to be 4 µM.

On to `C[n+]1c(/C=C/c2ccc3c(c2)c2ccccc2n3Cc2ccccc2)oc2ccccc21`, for which the IC50 was found to be 32.3 µM.

For `CCn1c2ccccc2c2cc(/C=C/c3sc4ccc5ccccc5c4[n+]3C)ccc21`, the IC50 stood at 2.5 µM.

Take `CN(C)CCCn1c2ccccc2c2cc(/C=C/c3sc4ccccc4[n+]3C)ccc21`: the IC50 was found to be 14.7 µM.

Take `CCn1c2ccccc2c2cc(/C=C/c3nc4c(ccc5ccccc54)s3)ccc21`: the IC50 is greater than 100 µM.

As to `C(=C\c1nc2ccccc2o1)/c1ccc2c(c1)c1ccccc1n2Cc1ccccc1`, the IC50 is 25.9 µM.

For the molecule `CCn1c2ccccc2c2cc(/C=C/c3oc4ccc5ccccc5c4[n+]3C)ccc21`, the IC50 stood at 26.3 µM.

With `CN(C)CCCn1c2ccccc2c2cc(/C=C/c3nc4ccccc4s3)ccc21`, the IC50 is 42.9 µM.

In the case of `CCn1c2ccccc2c2cc(/C=C/c3nc4ccccc4s3)ccc21`, the IC50 was greater than 100 µM.

Test system in another data set: not listed separately
Nature of the data set: Cytotoxicity against human NCM460 cells assessed as reduction in cell viability incubated for 48 hrs by MTT assay. Format: toxicity, cell-based.
Conditions: not given
With `CN(C)CCCn1c2ccccc2c2cc(/C=C/c3oc4ccccc4[n+]3C)ccc21`, the IC50 at 48 h was 35.6 µM.

As for `CN(C)CCCn1c2ccccc2c2cc(/C=C/c3[se]c4ccccc4[n+]3C)ccc21`, the IC50 at 48 h was 87.7 µM.

For the molecule `CCn1c2ccccc2c2cc(/C=C/c3nc4c(ccc5ccccc54)o3)ccc21`, the IC50 at 48 h was greater than 100 µM.

In the case of `CCn1c2ccccc2c2cc(/C=C/c3sc4ccccc4[n+]3C)ccc21`, the IC50 at 48 h came out at 39.3 µM.

Regarding `C[n+]1c(/C=C/c2ccc3c(c2)c2ccccc2n3Cc2ccccc2)oc2ccccc21`, the IC50 at 48 h is greater than 100 µM.

As for `CCn1c2ccccc2c2cc(/C=C/c3sc4ccc5ccccc5c4[n+]3C)ccc21`, the IC50 at 48 h was 26.1 µM.

On to `CN(C)CCCn1c2ccccc2c2cc(/C=C/c3sc4ccccc4[n+]3C)ccc21`, for which the IC50 at 48 h came to 30.2 µM.

On to `CCn1c2ccccc2c2cc(/C=C/c3nc4c(ccc5ccccc54)s3)ccc21`, for which the IC50 at 48 h is greater than 100 µM.

In the case of `C(=C\c1nc2ccccc2o1)/c1ccc2c(c1)c1ccccc1n2Cc1ccccc1`, the IC50 at 48 h was greater than 100 µM.

In the case of `CCn1c2ccccc2c2cc(/C=C/c3oc4ccc5ccccc5c4[n+]3C)ccc21`, the IC50 at 48 h is greater than 100 µM.

On to `CN(C)CCCn1c2ccccc2c2cc(/C=C/c3nc4ccccc4s3)ccc21`, for which the IC50 at 48 h is greater than 100 µM.

In the case of `CCn1c2ccccc2c2cc(/C=C/c3nc4ccccc4s3)ccc21`, the IC50 at 48 h is greater than 100 µM.
